Test results taken from ChEMBL document CHEMBL1255215, “Synthesis and selective anticancer activity of organochalcogen based redox catalysts” (J Med Chem, 2010).
Calls of active or inactive are those of the source. The calls are words filed in the database; no cut-off is given here.

Legend:
[1] = tested on: B-CLL; assay: Cytotoxicity against human B-CLL cells assessed as reduction in cell viability; assay type: functional, cell-based
[2] = tested on: K562; assay: Cytotoxicity against human K562 cells assessed as cell viability at 10 uM; assay type: functional; conditions: read-out: Activity
[3] = tested on: PBMC; assay: Cytotoxicity against human PBMC; assay type: cell-based
[4] = tested on: B-CLL; assay: Induction of apoptosis in human B-CLL cells assessed as caspase3 activation by […]; assay type: functional, cell-based
[5] = tested on: PBMC; assay: Induction of apoptosis in human PBMC cells assessed as caspase3 activation by […]; assay type: functional, cell-based
[6] = tested on: B-CLL; assay: Induction of intracellular ROS level in human B-CLL cells by flow cytometry; assay type: functional, cell-based
[7] = tested on: PBMC; assay: Induction of intracellular ROS level in human PBMC cells by flow cytometry; assay type: functional, cell-based
[8] = tested on: HT-29; assay: Cytotoxicity against human HT-29 cells at 0.3 to 0.625 uM; assay type: functional
[9] = tested on: MCF7; assay: Cytotoxicity against human MCF7 cells at 0.3 to 0.625 uM; assay type: functional
[10] = tested on: A549; assay: Cytotoxicity against human A549 cells at 0.3 to 0.625 uM; assay type: functional
[11] = Cytotoxicity against mouse NIH/3T3 cells at 1.25 uM; assay type: cell-based; conditions: nih3t3, 1.25 µM
[12] = tested on: HUVEC; assay: Cytotoxicity against HUVEC at 1.25 uM; assay type: cell-based; conditions: human
[13] = tested on: B-CLL; assay: Cytotoxicity against human B-CLL cells assessed as reduction in cell viability at 10 uM; assay type: functional, cell-based
[14] = Cytotoxicity against human B-CLL cells assessed as reduction in cell viability at 500 nM relative to untreated control; assay type: functional
[15] = Cytotoxicity against human B-CLL cells assessed as reduction in cell viability at 1 uM relative to untreated control; assay type: functional
[16] = tested on: A549; assay: Cytotoxicity against human A549 cells at 0.3 uM; assay type: functional
[17] = tested on: MCF7; assay: Cytotoxicity against human MCF7 cells at 0.3 uM; assay type: functional

## O=C1C([Te]c2ccccc2)=C([Te]c2ccccc2)C(=O)c2ccccc21
[1]
  Activity: Active
[2]
  viability at 10 µM: 15%
[3]
  Activity: Non-toxic
[4]
  Activity: Active
[5]
  Activity: inactive
[6]
  Activity: Active
[7]
  Activity: inactive
[8]
  Activity: <50%
[9]
  Activity: <50%
[10]
  Activity: <50%
[11]
  Activity: < 50%
[12]
  Activity: < 50%

## O=C1C(Sc2ccccc2)=C(Sc2ccccc2)C(=O)c2ccccc21
[1]
  Activity: Active
[13]
  Activity: Active

## O=C1C([Se]c2ccccc2)=C([Se]c2ccccc2)C(=O)c2c(O)ccc(O)c21
[1]
  Activity: Active
[3]
  Activity: Toxic
[13]
  Activity: Active

## CCOC(C[Se]C1=C([Se]CC(OCC)OCC)C(=O)c2ccccc2C1=O)OCC
[2]
  viability at 10 µM: 8.6%

## CC1=C([Te]c2ccccc2)C(=O)c2ccccc2C1=O
[1]
  Activity: Active
[2]
  viability at 10 µM: 4.1%
[3]
  Activity: Non-toxic
[14]
  Ratio: 3.17
[15]
  Ratio: 5.03
[6]
  Activity: Active
[7]
  Activity: inactive
[11]
  Activity: < 50%
[12]
  Activity: < 50%
[16]
  Activity: <50%
[17]
  Activity: <50%

## O=C1C([Se]c2ccccc2)=C([Se]c2ccccc2)C(=O)c2ccccc21
[1]
  Activity: Active
[3]
  Activity: Non-toxic

## CC1=C([Te]c2ccc(O)cc2)C(=O)c2ccccc2C1=O
[1]
  Activity: inactive
[2]
  viability at 10 µM: 30%
